Measurements taken from ChEMBL document CHEMBL3217615, “Novel 3,5-bis(arylidiene)-4-piperidone based monocarbonyl analogs of curcumin: anticancer activity evaluation and mode of action study” (2014).

Assays:
Format in all cases: functional
[1] = Growth inhibition of human Hs 578T cells after 48 hrs by sulforhodamine B assay
[2] = system: CCRF-CEM; assay: Growth inhibition of human CCRF-CEM cells assessed as cell growth at 10^-6 M after 48 hrs by sulforhodamine B assay; conditions: read-out: Activity
[3] = Growth inhibition of human Hs 578T cells assessed as cell growth at 10^-7 M after 48 hrs by sulforhodamine B assay; conditions: read-out: Activity
[4] = system: TK-10; assay: Growth inhibition of human TK10 cells assessed as cell growth at 10^-7 M after 48 hrs by sulforhodamine B assay; conditions: TK-10, 48 h, read-out: Activity
[5] = Growth inhibition of human Hs 578T cells assessed as cell growth at 10^-6 M after 48 hrs by sulforhodamine B assay; conditions: read-out: Activity
[6] = system: PC-3; assay: Growth inhibition of human PC3 cells assessed as cell growth at 10^-6 M after 48 hrs by sulforhodamine B assay; conditions: PC-3, 48 h, read-out: Activity
[7] = system: TK-10; assay: Growth inhibition of human TK10 cells assessed as cell growth at 10^-6 M after 48 hrs by sulforhodamine B assay; conditions: TK-10, 48 h, read-out: Activity
[8] = Growth inhibition of human OVCAR8 cells assessed as cell growth at 10^-4 M after 48 hrs by sulforhodamine B assay; conditions: OVCAR-8, 48 h, read-out: Activity
[9] = system: HCT-116; assay: Growth inhibition of human HCT116 cells assessed as cell growth at 10^-4 M after 48 hrs by sulforhodamine B assay; conditions: HCT-116, 48 h, read-out: Activity
[10] = system: HOP-62; assay: Growth inhibition of human HOP62 cells assessed as cell growth at 10^-4 M after 48 hrs by sulforhodamine B assay; conditions: HOP-62, 48 h, read-out: Activity
[11] = system: A549; assay: Growth inhibition of human A549/ATCC cells assessed as cell growth at 10^-4 M after 48 hrs by sulforhodamine B assay; conditions: A549, 48 h, read-out: Activity
[12] = system: K562; assay: Growth inhibition of human K562 cells assessed as cell growth at 10^-4 M after 48 hrs by sulforhodamine B assay; conditions: K562, 48 h, read-out: Activity
[13] = Growth inhibition of human UACC62 cells assessed as cell growth at 10^-8 M after 48 hrs by sulforhodamine B assay; conditions: UACC-62, 48 h; for growth at 0.01 µM: read-out: Activity; for TGI: read-out: pTGI (converted)
[14] = Growth inhibition of human SF539 cells assessed as cell growth at 10^-8 M after 48 hrs by sulforhodamine B assay; conditions: SF-539, 48 h; for growth at 0.01 µM: read-out: Activity; for TGI: read-out: pTGI (converted)
[15] = Growth inhibition of human HCC2998 cells assessed as cell growth at 10^-8 M after 48 hrs by sulforhodamine B assay; conditions: HCC 2998, 48 h; for growth at 0.01 µM: read-out: Activity; for CC50: read-out: pLC50 (the source's name) (converted); for TGI: read-out: pTGI (converted)
[16] = system: NCI-H460; assay: Growth inhibition of human NCI-H460 cells assessed as cell growth at 10^-8 M after 48 hrs by sulforhodamine B assay; conditions: NCI-H460, 48 h; for growth at 0.01 µM: read-out: Activity; for TGI: read-out: pTGI (converted)
[17] = system: TK-10; assay: Growth inhibition of human TK10 cells after 48 hrs by sulforhodamine B assay; conditions: TK-10, 48 h
[18] = system: HCT-116; assay: Growth inhibition of human HCT116 cells after 48 hrs by sulforhodamine B assay; conditions: HCT-116, 48 h; for CC50: read-out: LC50 (the source's name)
[19] = system: A549; assay: Growth inhibition of human A549/ATCC cells after 48 hrs by sulforhodamine B assay; conditions: A549, 48 h; for CC50: read-out: LC50 (the source's name)
[20] = Growth inhibition of human Hs 578T cells assessed as cell growth at 10^-4 M after 48 hrs by sulforhodamine B assay; conditions: read-out: Activity
[21] = system: MCF7; assay: Growth inhibition of human MCF7 cells assessed as cell growth at 10^-4 M after 48 hrs by sulforhodamine B assay; conditions: MCF7, 48 h, read-out: Activity
[22] = system: TK-10; assay: Growth inhibition of human TK10 cells assessed as cell growth at 10^-4 M after 48 hrs by sulforhodamine B assay; conditions: TK-10, 48 h, read-out: Activity
[23] = system: NCI-H23; assay: Growth inhibition of human NCI-H23 cells assessed as cell growth at 10^-7 M after 48 hrs by sulforhodamine B assay; conditions: NCI-H23, 48 h, read-out: Activity
[24] = Growth inhibition of human Hs 578T cells assessed as cell growth at 10^-8 M after 48 hrs by sulforhodamine B assay
[25] = system: TK-10; assay: Growth inhibition of human TK10 cells assessed as cell growth at 10^-8 M after 48 hrs by sulforhodamine B assay; conditions: TK-10, 48 h
[26] = system: KM12; assay: Growth inhibition of human KM12 cells assessed as cell growth at 10^-6 M after 48 hrs by sulforhodamine B assay; conditions: KM12, 48 h, read-out: Activity
[27] = read-out: LC50 (the source's name)

Molecule `Cc1ccc(S(=O)(=O)N2C/C(=C\c3cc(F)cc(F)c3)C(=O)/C(=C/c3cc(F)cc(F)c3)C2)cc1` has a GI50 [1] of 0.399 µM, a TGI [1] of 18.6 µM and a CC50 [1, 27] greater than 100 µM. For the same molecule, the growth at 1 µM [2] was -1%, the growth at 0.1 µM [3] was 93% and the growth at 0.1 µM [4] was 106%. For the same molecule, the growth at 1 µM [5] was 22%, the growth at 1 µM [6] was -9% and the growth at 1 µM [7] was 52%. It also gave a growth at 100 µM [8] of -71%, a growth at 100 µM [9] of -92% and a growth at 100 µM [10] of -93%. For the same molecule, the growth at 100 µM [11] was -34%, the growth at 100 µM [12] was -41% and the GI50 [13] was 0.214 µM. It also gave an LC50 [13] of 1.62 µM, a growth at 0.01 µM [13] of 94% and a TGI [13] of 0.513 µM. It also gave a GI50 [14] of 1.2 µM, an LC50 [14] of 6.76 µM and a growth at 0.01 µM [14] of 94%. It also gave a TGI [14] of 2.88 µM, a GI50 [15] of 0.603 µM and a growth at 0.01 µM [15] of 102%. The CC50 [15] was 4.9 µM, the TGI [15] was 1.91 µM and the GI50 [16] was 0.832 µM. For the same molecule, the LC50 [16] was 9.12 µM, the growth at 0.01 µM [16] was 103% and the TGI [16] was 2.88 µM. For the same molecule, the GI50 [17] was 1.03 µM, the TGI [17] was 2.96 µM and the CC50 [17, 27] was 8.46 µM. It also gave a GI50 [18] of 0.209 µM, a TGI [18] of 0.543 µM and a CC50 [18] of 1.94 µM. The GI50 [19] was 2.86 µM, the TGI [19] was 14.6 µM and the CC50 [19] was greater than 100 µM. It also gave a growth at 100 µM [20] of -23%, a growth at 100 µM [21] of -72% and a growth at 100 µM [22] of -85%. The growth at 0.1 µM [23] was 100%, the GI50 [24] was 0.398 µM and the LC50 [24] was greater than 100 µM. It also gave a growth at 0.01 µM ([24]; read-out: Activity) of 92%, a TGI ([24]; read-out: pTGI (converted)) of 18.6 µM and a GI50 [25] of 1.02 µM. The LC50 (50% lethal concentration) [25] was 8.51 µM, the growth at 0.01 µM ([25]; read-out: Activity) was 103% and the TGI ([25]; read-out: pTGI (converted)) was 2.95 µM.

`O=C1/C(=C/c2ccc(Cl)cc2Cl)CN(S(=O)(=O)c2ccccc2)C/C1=C\c1ccc(Cl)cc1Cl` gave a growth at 1 µM [26] of -30%, a growth at 100 µM [8] of -14% and a growth at 100 µM [9] of -76%. It also gave a growth at 100 µM [11] of -33%, a growth at 100 µM [12] of 3% and a GI50 [13] of 0.813 µM. The LC50 [13] was 5.75 µM, the growth at 0.01 µM [13] was 94% and the TGI [13] was 2.29 µM. For the same molecule, the GI50 [14] was 0.427 µM, the LC50 [14] was greater than 100 µM and the growth at 0.01 µM [14] was 98%. The TGI [14] was 2.09 µM, the GI50 [15] was 0.38 µM and the growth at 0.01 µM [15] was 102%. For the same molecule, the CC50 [15] was 4.57 µM, the TGI [15] was 1.35 µM and the GI50 [16] was 0.209 µM. It also gave an LC50 [16] of 0.955 µM, a growth at 0.01 µM [16] of 103% and a TGI [16] of 0.447 µM. It also gave a GI50 [18] of 0.198 µM, a TGI [18] of 0.424 µM and a CC50 [18] of 0.908 µM. It also gave a GI50 [19] of 0.277 µM, a TGI [19] of 0.887 µM and a CC50 [19] greater than 100 µM. It also gave a growth at 100 µM [21] of 9% and a growth at 0.1 µM [23] of 104%.
